US20160318928A1, “TRICYCLIC COMPOUNDS AS ANTICANCER AGENTS” (BRISTOL-MYERS SQUIBB COMPANY, priority 2013, published 2016)

Experiments:
BRD4 = BRD4 (Homo sapiens, UniProt O60885); experiment: Time resolved fluorescence resonance energy transfer (TR-FRET) binding assay, BRD4 bromodomain; settings: one of the FRET assays described
[1] = test system: JJN3R multiple myeloma cell line; experiment: Human tumor xenograft model in mice, JJN3R; assay type: in vivo; settings: Mus musculus, JJN-3R, po, QDx7, read-out: % TGI
Text: Human Tumor Xenograft Models in Mice
All rodents were obtained from Jackson Laboratory. (Bar Harbor, Me.), and maintained in an ammonia-free environment in a defined and pathogen-free colony. All mice were quarantined approximately 1 week prior to their use for tumor propagation and drug efficacy testing. Mice were fed food and water ad libitum. The animal care program of Bristol-Myers Squibb Pharmaceutical Research Institute is fully accredited by the American Association for Accreditation of Laboratory Animal Care (AAALAC). All experiments were performed in accordance with Bristol-Myers Squibb (BMS) animal test methods and guidelines.
Tumor xenografts were grown and maintained subcutaneously (SC) in NSG (NOD scid IL2 receptor gamma chain knockout) mice (Jackson Lab). Tumors were propagated as subcutaneous transplants using tumor fragments obtained from donor mice.
Preclinical Chemotherapy Trials
The required numbers of animals needed to detect a meaningful response were pooled at the start of the experiment and each was given bilateral subcutaneous implants of two tumor fragments (˜20 mg) with a 13-gauge trocar. Tumors were allowed to grow to the pre-determined size window (tumors outside the range were excluded) and animals were evenly distributed to various treatment and control groups. There were typically 6-8 mice per treatment and control groups, consisting of 10-12 tumors. Treatment of each animal was based on individual body weight. Treated animals were checked daily for treatment related toxicity/mortality. Each group of animals was weighed before the initiation of treatment (WO and then again following the last treatment dose (Wt2). The difference in body weight (Wt2-Wt1) provides a measure of treatment-related toxicity.
Tumor response was determined by measurement of tumors with a caliper twice a week, until the tumors reached a predetermined “target” size of 0.5 gm or 1 gm depending on the tumor type. Tumor weights (mg) were estimated from the formula:
Tumor weight=(length×width^2)÷2
Tumor response criteria are expressed in terms of tumor growth inhibition (% TGI). Tumor growth delay is defined as the difference in time (days) required for the treated tumors (T) to reach a predetermined target size compared to those of the control group (C). For this purpose, the tumor weight of a group is expressed as medium tumor weight (MTW).
Tumor growth inhibition is calculated as follows:
where, Ct=Median control tumor size at end of treatment C0=Median control tumor size at treatment initiation Tt=Median tumor size of treated group at end of treatment T0=Median tumor size of treated group at treatment initiation
Tumor response was also expressed in terms of tumor growth delay and expressed as log cell kill (LCK value), defined as the difference in time (days) required for the treated tumors (T) to reach a predetermined target size compared to those of the control group (C).
Whenever possible, antitumor activity was determined at a range of dose levels up to the maximum tolerated dose (MTD) which is defined as the dose level immediately […] which excessive toxicity (i.e. more than one death) occurred. When death occurred, the day of death was recorded. Treated mice dying prior to having their tumors reach target size were considered to have died from drug toxicity. No control mice died bearing tumors less than target size. Treatment groups with more than one death caused by drug toxicity were considered to have had excessively toxic treatments and their data were not included in the evaluation of a compound's antitumor efficacy.
For administration of BET inhibitors to rodents, compounds were dissolved in […]/10% TPGS/10% Ethanol. BET inhibitors were typically administered orally on a schedule of QDx7 or QDx10 (5 day-on-2 day-off), although other schedules had also been evaluated and shown to be efficacious

| SMILES | IC50 (BRD4) [nM] | inhibition in vivo at 1 mg/kg [1] [%] | inhibition in vivo at 4 mg/kg [1] [%] |
| --- | --- | --- | --- |
| Cc1nnn(C)c1-c1cnc2c3ccc(S(C)(=N)=O)cc3n([C@H](c3ccccc3)C3CCOCC3)c2c1 (single isomer, unassigned) [Example 371] | < 5 |  |  |
| Cc1nnn(C)c1-c1cnc2c3ccc(S(C)(=N)=O)cc3n([C@H](c3ccccc3)C3CCOCC3)c2c1 (single isomer, unassigned) [Example 372] | < 5 |  |  |
| COCC(C1CCOCC1)n1c2cc(C(C)(C)O)ccc2c2ncc(-c3c(C)nnn3C)cc21 (single isomer, unassigned) [Example 396] | < 5 |  |  |
| COCC(C1CCOCC1)n1c2cc(C(C)(C)O)ccc2c2ncc(-c3c(C)nnn3C)cc21 (single isomer, unassigned) [Example 397] | < 25 |  |  |
| Cc1nnn(C)c1-c1cnc2c3ccc([C@](C)(O)C4CC4)c(F)c3n([C@H](c3ccccc3)C3CCOCC3)c2c1 (single isomer, unassigned) [Example 432] |  | 51 | 102 |
| Cc1nnn(C)c1-c1cnc2c3ccc(C(C)(O)C4CC4)c(F)c3n([C@H](c3ccccc3F)C3CCOCC3)c2c1 (single isomer, unassigned) [Example 436] |  | 71 | 116 |
| [2H]C([2H])([2H])c1nnn(C)c1-c1cnc2c3cc(F)c(C(C)(C)O)cc3n(C(c3ncccc3F)C3CCOCC3)c2c1 (single isomer, unassigned) [Example 459] | < 5 |  |  |
| Cc1noc(C)c1-c1cnc2c3ccc(C(C)(C)O)cc3n(C(c3ccccc3)c3ccccc3)c2c1 [Example 3] | < 5 |  |  |
| CCCC(CCC)n1c2cc(C(C)(C)O)ccc2c2ncc(-c3c(C)noc3C)cc21 [Example 8] | < 5 |  |  |
| Cc1nnn(C)c1-c1cnc2c3ccc(C(C)(C)O)cc3n(C(CCC(F)(F)F)CCC(F)(F)F)c2c1 [Example 56] | < 5 |  |  |
| Cc1nnn(C)c1-c1cnc2c3ccc(C(C)(C)O)cc3n([C@H](c3ccc(F)cc3)C3CCOCC3)c2c1 [Example 59] | < 5 |  |  |
| Cc1nnn(C)c1-c1cnc2c3ccc(C(C)(C)O)cc3n([C@@H](c3ccc(F)cc3)C3CCOCC3)c2c1 [Example 60] | < 5 |  |  |
| CCCC(CCC)n1c2cc(C(C)(C)O)ccc2c2ncc(-c3c(C)nnn3C)cc21 [Example 61] | < 5 |  |  |
| Cc1nnn(C)c1-c1cnc2c3ccc(C(C)(C)O)cc3n([C@@H](c3ccc(F)cc3)C3CCOCC3)c2c1 [Example 73] | < 5 |  |  |
| Cc1nnn(C)c1-c1cnc2c3ccc(C(C)(C)O)c(F)c3n(C(CCC(F)(F)F)CCC(F)(F)F)c2c1 [Example 74] | < 25 |  |  |
| CCCC(CCC)n1c2cc(-c3c(C)nnn3C)cnc2c2ccc(C(C)(C)O)c(F)c21 [Example 75] | < 5 |  |  |
| CCCC(CCC)n1c2cc(-c3c(C)noc3C)cnc2c2ccc(C(C)(C)O)c(F)c21 [Example 82] | < 25 |  |  |
| Cc1noc(C)c1-c1cnc2c3ccc(C(C)(C)O)c(F)c3n(C(CCC(F)(F)F)CCC(F)(F)F)c2c1 [Example 83] | < 25 |  |  |

| SMILES | IC50 (BRD4) [nM] | inhibition in vivo at 1 mg/kg [1] [%] | inhibition in vivo at 4 mg/kg [1] [%] |
| --- | --- | --- | --- |
| CCS(=O)(=O)Nc1ccc(S(C)(=O)=O)c2c1c1ncc(-c3c(C)nnn3C)cc1n2[C@H](c1ccccc1)C1CCOCC1 [Example 217] | < 5 |  |  |
| Cc1nnn(C)c1-c1cnc2c3c(NS(=O)(=O)C4CC4)ccc(S(C)(=O)=O)c3n(C(c3ccccc3)C3CCOCC3)c2c1 (centres unmarked) [Example 218] | < 5 |  |  |
| Cc1nnn(C)c1-c1cnc2c3c(NS(=O)(=O)CC4CC4)ccc(S(C)(=O)=O)c3n([C@H](c3ccccc3)C3CCOCC3)c2c1 [Example 219] | < 5 |  |  |
| [2H]C([2H])([2H])c1nnn(C)c1-c1cnc2c3c(NS(=O)(=O)CC)ccc(S(C)(=O)=O)c3n(C(c3ccccc3)C3CCOCC3)c2c1 (centres unmarked) [Example 223] | < 25 |  |  |
| [2H]C([2H])([2H])c1nnn(C)c1-c1cnc2c3ccc(S(C)(=O)=O)cc3n([C@H](c3ccccc3)C3CCOCC3)c2c1 [Example 263, 5-{7-Methanesulfonyl-5-[(S)-oxan-4-yl(phenyl)methyl]-5H-pyrido[3,2-b]indol-3-yl}-4-(^2H3)methyl-1-methyl-1H-1,2,3-triazole] |  | 6 | 52 |
| [2H]C([2H])([2H])c1nnn(C)c1-c1cnc2c3ccc(S(C)(=O)=O)cc3n(C(c3ccc(F)cc3)C3CCOCC3)c2c1 (centres unmarked) [Example 265] | < 5 |  |  |
| [2H]C([2H])([2H])c1nnn(C)c1-c1cnc2c3ccc(C(C)(C)O)cc3n(C(c3ccccc3F)C3CCOCC3)c2c1 (centres unmarked) [Example 266] | < 5 |  |  |
| [2H]C([2H])([2H])c1nnn(C)c1-c1cnc2c3c(S(C)(=O)=O)cccc3n(C(c3ccc(F)cc3)C3CCOCC3)c2c1 (centres unmarked) [Example 270] | < 5 |  |  |
| [2H]C([2H])([2H])c1nnn(C)c1-c1cnc2c3ccc(C(C)(C)O)c(F)c3n([C@H](c3ccccc3F)C3CCCOC3)c2c1 (some centres unmarked) [Example 272] | < 5 |  |  |
| [2H]C([2H])([2H])c1nnn(C)c1-c1cnc2c3c(OC)cc(C(C)(C)O)cc3n(C(c3ccc(F)cc3)C3CCOCC3)c2c1 (centres unmarked) [Example 275] | < 5 |  |  |
| [2H]C([2H])([2H])c1nnn(C)c1-c1cnc2c3cc(F)c(C(C)(C)O)cc3n([C@H](c3ccccc3F)C3CCOCC3)c2c1 [Example 276, 2-{8-Fluoro-5-[(S)-(2-fluorophenyl)(oxan-4-yl)methyl]-3-[4-(^2H3)methyl-1-methyl-1H-1,2,3-triazol-5-yl]-5H-pyrido[3,2-b]indol-7-yl}propan-2-ol] |  | 56 | 95 |
| [2H]C([2H])([2H])c1nnn(C)c1-c1cnc2c3ccc(C(C)(C)O)c(F)c3n([C@H](c3ccccc3)C3CCOCC3)c2c1 [Example 278, 2-{6-Fluoro-3-[4-(^2H3)methyl-1-methyl-1H-1,2,3-triazol-5-yl]-5-[(S)-oxan-4-yl(phenyl)methyl]-5H-pyrido[3,2-b]indol-7-yl}propan-2-ol] |  | 103 | 110 |
| COc1cccnc1C(C1CCOCC1)n1c2cc(C(C)(C)O)ccc2c2ncc(-c3c(C)nnn3C)cc21 (centres unmarked) [Example 291] | < 5 |  |  |
| Cc1nnn(C)c1-c1cnc2c3ccc(CN(C)C)cc3n([C@H](c3ccccc3)C3CCOCC3)c2c1 [Example 406, {[3-(Dimethyl-1H-1,2,3-triazol-5-yl)-5-[(S)-oxan-4-yl(phenyl)methyl]-5H-pyrido[3,2-b]indol-7-yl]methyl}dimethylamine] | < 5 |  |  |
| Cc1nnn(C)c1-c1cnc2c3cc(C(=O)N4CC(F)(F)C4)ccc3n([C@H](c3ccccc3)C3CCOCC3)c2c1 [Example 428, 5-[8-(3,3-Difluoroazetidine-1-carbonyl)-5-[(S)-oxan-4-yl(phenyl)methyl]-5H-pyrido[3,2-b]indol-3-yl]-1,4-dimethyl-1H-1,2,3-triazole] | < 5 |  |  |
| Cc1nnn(C)c1-c1cnc2c3cc(C(=O)N4CC(O)C4)ccc3n([C@H](c3ccccc3)C3CCOCC3)c2c1 [Example 429, 1-[3-(Dimethyl-1H-1,2,3-triazol-5-yl)-5-[(S)-oxan-4-yl(phenyl)methyl]-5H-pyrido[3,2-b]indole-8-cabonyl]azetidine-3-ol] | < 5 |  |  |
| Cc1nnn(C)c1-c1cnc2c3cc(C(=O)N4CC(F)C4)ccc3n([C@H](c3ccccc3)C3CCOCC3)c2c1 [Example 430, 5-[8-(3-Fluoroazetidine-1-carbonyl)-5-[(S)-oxan-4-yl(phenyl)methyl]-5H-pyrido[3,2-b]indol-3-yl]-1,4-dimethyl-1H-1,2,3-triazole] | < 5 |  |  |
| Cc1nnn(C)c1-c1cnc2c3cc(F)c(C(C)(C)O)c(F)c3n([C@H](c3ccccc3)C3CCOCC3)c2c1 [Example 451, 2-[3-(Dimethyl-1H-1,2,3-triazol-5-yl)-6,8-difluoro-5-[(S)-oxan-4-yl(phenyl)methyl]-5H-pyrido[3,2-b]indol-7-yl]propan-2-ol] | < 5 |  |  |
